Several values for one entry are separate records, joined by “and”; a condition that tells them apart may be missing. Equal entries are not always repeated. Activity calls are given as the source filed them. How the source made its calls: active means viability on the fitted dose curve at most 10% of control; inactive means the rest.
Test system: 817829-284-R-J1-PDC spheroids with HUVEC/MSC, viability
Experiment: Anticancer human tumor 817829-284-R-J1-PDC patient-derived colon adenocarcinoma cell line growth inhibition [TAK]
Conditions: for viability, T/C: stronger effect = lower value
From the text: Combinatorial screen of targeted agents with TAK-243 and ipatasertib in multi-cell type tumor spheroids
A high-throughput screen of multi-cell type tumor spheroids was designed to identify active combinations of targeted small molecules and TAK-243 or ipatasertib. Complex spheroids include a stromal component modeled by human endothelial cells (HUVEC) and fibroblasts modeled by human mesenchymal stem cells (MSCs). The concentration ranges selected for each drug and investigational agent were based upon clinically achievable concentrations if the clinical Cmax of the agent was known.
Compounds. The drugs and investigational agents: TAK-243 (785004), ipatasertib (767898), everolimus (733504), selumetinib (741078), bortezomib (756655), trametinib (758246), ixazomib (758254), vemurafenib (761431), dabrafenib (764134), sapanisertib (764658), alpelisib (765974), and copanlisib (816437), were obtained from the National Cancer Institute (NCI) Developmental Therapeutics Program Chemical Repository. The FDA-approved anticancer drug set is available from the NCI Developmental Therapeutics Program. […] The stock solutions were prepared in dimethyl sulfoxide (DMSO, Sigma-Aldrich, St. Louis, MO, cat. D2650) at 800-fold the tested concentration and stored at -70 degrees C prior to their use. All drugs and investigational agents were tested over a range starting from a high concentration at or near the clinical Cmax and decreasing in half-log increments. If the clinical Cmax for an agent had not been determined, the highest concentration tested was 10 microM.
NCI60 Cell Culture. NCI60 cell lines were obtained from the NCI Developmental Therapeutics Program Tumor Repository. For each lot of cells, the Repository performed Applied Biosystems AmpFLSTR Identifiler testing with PCR amplification to confirm consistency with the published Identifier STR profile for each cell line. Cells were kept in continuous culture for no more than 20 passages. The optimal seeding densities for each of the cell lines at each time point assessed were determined prior to performing the concentration response studies. Briefly, the NCI60 human tumor lines were grown as monolayers in RPMI 1640 medium supplemented with 10% FBS and 2 mmol/L L-glutamine.
An additional 2 lines were from the NCI60 cell line panel including melanomas, MALME-3M and SK-MEL-2. Pooled donor human umbilical vein endothelial cells (HUVEC, Lonza, cat. CC-2519) and human mesenchymal stem cells (hMSC, Lonza, cat. PT-2501) were purchased from Lonza (Walkersville, MD).
PDMR cell lines were grown in complete medium (DC medium): Dulbecco's modified Eagle's medium (DMEM)/F12 supplemented with 5% fetal bovine serum (FBS), 2 mM L-glutamine, 100 U/mL penicillin and 100 µg/ml streptomycin, 0.4 µg/ml hydrocortisone, 10 ng/ml epidermal growth factor (EGF) recombinant human protein, 24 µg/mL adenine, and 0.1 mg/mL primocin. During culture from frozen stock vials, PDMR cells were cultured in the same medium containing 10 µM Y-27632 (see Table 3). The PDCs were cultured in complete DMEM/F12 media without 10 microM Y-27632 dihydrochloride for at least two passages prior to the screen. The pooled donor HUVEC and hMSC were cultured in endothelial cell growth medium 2 (PromoCell, Heidelberg, Germany, cat. C-22011) and mesenchymal stem cell growth medium 2 (PromoCell, cat. C-28009), respectively. For all experiments, HUVEC and hMSC were used at passages </=5.
For the pre-screen, cell seeding densities were determined from a titration spanning the range from 5,000 to 313 cells per well. The mct-spheroids including 60% malignant cells, 25% HUVEC and 15% MSC dispensed as a mixture into U-bottom Ultra-Low Attachment 384-well plates (Corning, NY)
High-throughput Drug Combination Screening.
Prior to their inoculation into 384-well plates, malignant cells, HUVEC, and hMSC were removed from T flasks using TrypLE express (Thermo Fisher Scientific, cat. 12605036) and harvested by centrifugation for 5 min at 233 x g. […]

CC(=O)Nc1cccc(-n2c(=O)n(C3CC3)c(=O)c3c(Nc4ccc(I)cc4F)n(C)c(=O)c(C)c32)c1
inactive: viability, T/C (compound 94.9 pM) 104% and 103% | viability, T/C (compound 0.0003 µM) 93% and 94.2% | viability, T/C (compound 0.000949 µM) 85.1% and 82.9% | viability, T/C (compound 0.003 µM) 65.9% and 53.9% | viability, T/C (compound 0.00949 µM) 25.9% and 33.9%
4.58 nM and 4.15 nM: IC50 (curve of compound)
10.8% and 11%: viability, T/C (compound 0.03 µM)

CC(C)(C)c1nc(-c2cccc(NS(=O)(=O)c3c(F)cccc3F)c2F)c(-c2ccnc(N)n2)s1
inactive: viability, T/C (compound 0.0316 µM) 98.1% and 94% | viability, T/C (compound 0.1 µM) 87.5% and 82.2% | viability, T/C (compound 0.316 µM) 54.2% and 63.3% | outcome (compound 1 µM) | viability, T/C (compound 1 µM) 31% | viability, T/C (compound 3.16 µM) 64.7% and 54.7% | viability, T/C (compound 10 µM) 46.4% and 50.4%

CC(C)CC(NC(=O)C(Cc1ccccc1)NC(=O)c1cnccn1)B(O)O (centres undefined)
inactive: viability, T/C (compound 31.6 pM) 102% and 95.1% | viability, T/C (compound 0.0001 µM) 99.1% and 89.3% | viability, T/C (compound 0.000316 µM) 98.6% and 94.7% | viability, T/C (compound 0.001 µM) 89.5% and 98.6% | viability, T/C (compound 0.00316 µM) 103% and 99.9%
5.61 nM and > 10 nM: IC50 (curve of compound)

CC(C)CC(NC(=O)CNC(=O)c1cc(Cl)ccc1Cl)B1OC(=O)CC(CC(=O)O)(C(=O)O)O1 (centres undefined)
inactive: viability, T/C (compound 0.000316 µM) 106% and 97.9% | viability, T/C (compound 0.001 µM) 107% and 100% | viability, T/C (compound 0.00316 µM) 111% and 99.2% | viability, T/C (compound 0.01 µM) 103% and 105%
3.63% and 22.3%: viability, T/C (compound 0.0316 µM)
active: viability, T/C (compound 0.1 µM) 0.47% and 0.3%
18.5 nM and 21 nM: IC50 (curve of compound)

CC(C)NCC(C(=O)N1CCN(c2ncnc3c2C(C)CC3O)CC1)c1ccc(Cl)cc1 (centres undefined)
11.2% [middle of 10 runs]: viability, T/C (compound 9.49 µM)
15.9% [middle of 10 runs]: viability, T/C (compound 3 µM)
6.54% [middle of 10 runs]: viability, T/C (compound 30 µM)
1.55 µM [middle of 6 runs]: IC50 (compound alone, run of 02/28/2020)
665 nM [middle of 4 runs]: IC50 (compound alone, run of 03/19/2020)

CC(C)n1nc(-c2ccc3oc(N)nc3c2)c2c(N)ncnc21
inactive: viability, T/C (compound 0.000316 µM) 101% and 104% | viability, T/C (compound 0.001 µM) 102% and 99% | viability, T/C (compound 0.00316 µM) 101% and 102% | viability, T/C (compound 0.01 µM) 93% and 92.9% | viability, T/C (compound 0.0316 µM) 56.8% and 61.2% | viability, T/C (compound 0.1 µM) 21.3% and 33.1%
39.4 nM and 50 nM: IC50 (curve of compound)

CCCS(=O)(=O)Nc1ccc(F)c(C(=O)c2c[nH]c3ncc(-c4ccc(Cl)cc4)cc23)c1F
inactive: viability, T/C (compound 0.316 µM) 89.1% and 93% | viability, T/C (compound 1 µM) 81.3% and 89.1% | viability, T/C (compound 3.16 µM) 62.7% and 34.4% | viability, T/C (compound 10 µM) 12.4% and 10.9% | viability, T/C (compound 31.6 µM) 56.8% and 26.3% | viability, T/C (compound 100 µM) 59.9% and 43.6%
6650 nM and 2270 nM: IC50 (curve of compound)

COC1CC2CCC(C)C(O)(O2)C(=O)C(=O)N2CCCCC2C(=O)OC(C(C)CC2CCC(OCCO)C(OC)C2)CC(=O)C(C)C=C(C)C(O)C(OC)C(=O)C(C)CC(C)C=CC=CC=C1C (centres undefined)
> 100 nM: IC50 (curve of compound)
inactive: viability, T/C (compound 0.000316 µM) 104% and 110% | viability, T/C (compound 0.001 µM) 99.8% and 102% | viability, T/C (compound 0.00316 µM) 94% and 99.6% | viability, T/C (compound 0.01 µM) 81% and 86.2% | viability, T/C (compound 0.0316 µM) 79.2% and 82.3% | viability, T/C (compound 0.1 µM) 63.9% and 75%

COc1c(OCCCN2CCOCC2)ccc2c3n(c(=NC(=O)c4cnc(N)nc4)nc12)CCN3
inactive: viability, T/C (compound 0.00316 µM) 104% and 105% | viability, T/C (compound 0.01 µM) 90.7% and 96.1% | viability, T/C (compound 0.0316 µM) 63.8% and 44.4% | viability, T/C (compound 0.1 µM) 18.7% and 13.9%
44 nM and 28.7 nM: IC50 (curve of compound)
active: viability, T/C (compound 0.316 µM) 3.92% and 2.94% | viability, T/C (compound 1 µM) 2.85% and 3.44%

Cc1nc(NC(=O)N2CCCC2C(N)=O)sc1-c1ccnc(C(C)(C)C(F)(F)F)c1 (centres undefined)
9420 nM and 9840 nM: IC50 (curve of compound)
inactive: viability, T/C (compound 0.0316 µM) 96.8% and 102% | viability, T/C (compound 0.1 µM) 98.7% and 96.4% | viability, T/C (compound 0.316 µM) 94.8% and 94.7% | viability, T/C (compound 1 µM) 88.1% and 93% | viability, T/C (compound 3.16 µM) 79.6% and 80% | viability, T/C (compound 10 µM) 48.1% and 49.1%

Cn1cnc2c(F)c(Nc3ccc(Br)cc3Cl)c(C(=O)NOCCO)cc21
inactive: viability, T/C (compound 0.00949 µM) 89.3% and 94.4% | viability, T/C (compound 0.03 µM) 86.4% and 83.3% | viability, T/C (compound 0.0949 µM) 79% and 79.5% | viability, T/C (compound 0.3 µM) 72% and 66.6% | viability, T/C (compound 0.949 µM) 55.7% and 53.5% | viability, T/C (compound 3 µM) 25.6% and 20.5%
1150 nM and 953 nM: IC50 (curve of compound)

COC1CC2CCC(C)C(O)(O2)C(=O)C(=O)N2CCCCC2C(=O)OC(C(C)CC2CCC(OCCO)C(OC)C2)CC(=O)C(C)C=C(C)C(O)C(OC)C(=O)C(C)CC(C)C=CC=CC=C1C (centres undefined) + CC(C)NCC(C(=O)N1CCN(c2ncnc3c2C(C)CC3O)CC1)c1ccc(Cl)cc1
0.479 nM: IC50 (curve of first compound, second compound 0.949 µM)
< 0.316 nM: IC50 (curve of first compound, second compound 3 µM) | IC50 (curve of first compound, second compound 9.49 µM) | IC50 (curve of first compound, second compound 30 µM)
active: viability, T/C (second compound 30 µM, first compound 0.000316 µM) 7.9% | viability, T/C (second compound 30 µM, first compound 0.001 µM) 7.4% | viability, T/C (second compound 30 µM, first compound 0.00316 µM) 6.49% | viability, T/C (second compound 30 µM, first compound 0.01 µM) 6.32% | viability, T/C (second compound 30 µM, first compound 0.0316 µM) 6.79% | viability, T/C (second compound 30 µM, first compound 0.1 µM) 6.34%
14.5 nM: IC50 (curve of first compound, second compound 0.3 µM)
inactive: viability, T/C (second compound 0.3 µM, first compound 0.000316 µM) 90.9% | viability, T/C (second compound 0.3 µM, first compound 0.001 µM) 76.7% | viability, T/C (second compound 0.3 µM, first compound 0.00316 µM) 61.8% | viability, T/C (second compound 0.3 µM, first compound 0.01 µM) 49.9% | viability, T/C (second compound 0.3 µM, first compound 0.0316 µM) 49.7% | viability, T/C (second compound 0.3 µM, first compound 0.1 µM) 40.8% | viability, T/C (second compound 0.949 µM, first compound 0.000316 µM) 59% | viability, T/C (second compound 0.949 µM, first compound 0.001 µM) 33.4% | viability, T/C (second compound 0.949 µM, first compound 0.00316 µM) 33.7% | viability, T/C (second compound 0.949 µM, first compound 0.01 µM) 31.7% | viability, T/C (second compound 0.949 µM, first compound 0.0316 µM) 28.6% | viability, T/C (second compound 0.949 µM, first compound 0.1 µM) 28.9% | viability, T/C (second compound 3 µM, first compound 0.000316 µM) 23.3% | viability, T/C (second compound 3 µM, first compound 0.001 µM) 19.9% | viability, T/C (second compound 3 µM, first compound 0.00316 µM) 16.4% | viability, T/C (second compound 3 µM, first compound 0.01 µM) 16% | viability, T/C (second compound 3 µM, first compound 0.0316 µM) 18.3% | viability, T/C (second compound 3 µM, first compound 0.1 µM) 13.7% | viability, T/C (second compound 9.49 µM, first compound 0.000316 µM) 12.9% | viability, T/C (second compound 9.49 µM, first compound 0.001 µM) 12.5% | viability, T/C (second compound 9.49 µM, first compound 0.00316 µM) 12.6% | viability, T/C (second compound 9.49 µM, first compound 0.01 µM) 12.7% | viability, T/C (second compound 9.49 µM, first compound 0.0316 µM) 9.91% | viability, T/C (second compound 9.49 µM, first compound 0.1 µM) 12.8%
